We go through 21 compounds from patent US20060223996A1, “IL-12 modulatory compounds” (Synta Pharmaceuticals Corp., priority 2004, published 2006).

Test [1] has as its system IL-12. Description: Human in vitro assay: inhibition of IL-12 production in IFNγ/LPS- or IFNγ/SAC-stimulated human PBMC or THP-1 cells (ELISA). It is filed as cell-based. As to conditions: read-out: IC50 Range (representative in vitro IC50 data). The method in brief: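 PBMC (5×10^5 cells/well) primed with IFNγ 30 U/mL for 22 h then LPS 1 μg/mL, or IFNγ 100 U/mL then SAC 0.01%; THP-1 primed with IFNγ 100 U/mL for 22 h then SAC 0.025%, with compound in 0.25% DMSO. Supernatant IL-12 p70/p40 measured by sandwich ELISA after 18 h; IC50 derived; viability by MTS.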
For orientation: An ELISA detects its analyte on a solid surface through an enzyme-linked reagent.

Test [2] deals with adjuvant arthritis (AA). Put plainly: Treatment of adjuvant arthritis in rats. It is filed as in vivo, rat. As to conditions: female Lewis rats, oral once a day for 7 days (day 7-14) after MTB induction, vs vehicle. The procedure: Treatment of adjuvant arthritis in rats: Adjuvant arthritis (AA) was induced in female Lewis rats by the intracutaneous injection (base of the tail) of 0.1 mL of a 10 mg/mL bacterial suspension made from ground, heat-killed Mycobacterium tuberculosis (MTB) H37Ra suspended in incomplete Freund's adjuvant. Rats were given Compound 1 or vehicle orally once a day for 7 days (day 7-14), starting day 7 after mycobacterium induction. The development of polyarthritis was monitored daily by macroscopic inspection and assignment of an arthritis index to each animal, during the critical period (days 10 to 25 post-immunization).
The intensity of polyarthritis was scored according to the following scheme: (a) Grade each paw from 0 to 3 based on erythema, swelling, and deformity of the joints: 0 for no erythema or swelling; 0.5 if swelling is detectable in at least one joint; 1 for mild swelling and erythema; 2 for swelling and erythema of both tarsus and carpus; and 3 for ankylosis and bony deformity. Maximum score for all 4 paws was thus 12. […]
Experiments with the AA model were repeated four times. […] The arthritis score used in this model was a reflection of the inflammatory state of the structures monitored and the results therefore show the ability of the test compound to provide relief for this aspect of the pathology.

Test [3] concerns IL-12. Put plainly: Murine in vitro assay: IL-12 production in IFNγ/SAC-stimulated splenocytes of immunized Balb/c mice (ELISA). It is filed as cell-based. As to conditions: Mus musculus, Splenocyte; Balb/c splenocytes stimulated with IFNγ and SAC. The procedure:
Murine In Vitro Assay. Balb/c mice (Taconic, Germantown, N.Y.) were immunized with Mycobacterium tuberculosis H37Ra (Difco, Detroit, Mich.). The splenocytes were harvested 5 days and prepared in RPMI medium supplemented with 10% FCS and antibiotics in a flat bottom 96-well plate with 1×10^6 cells/well. The splenocytes were then stimulated with a combination of IFNγ (60 ng/mL) and SAC (0.025%) (LPS (20 μg/mL can be used instead of SAC)) in the presence of a test compound. Cell-free supernatants were taken 24 h later for the measurement of cytokines. The preparation of compound and the assessment of cell viability were carried out as described above. […] Mouse IL-12 p70, IL-10, IL-1β, and TNFα are measured using ELISA kits from Endogen, according to the manufacturer's instructions.

SMILES strings stand for the structures.

Regarding `Cc1[nH]c2ccc(NC(=O)c3cc(OCCN4CCOCC4)nc(N4CCOCC4)n3)cc2c1C` [Compound 1, 2-Morpholin-4-yl-6-(2-morpholin-4-yl-ethoxy)-pyrimidine-4-carboxylic acid (2,3-dimethyl-1H-indol-5-yl)-amide], the IC50 in test [1] is less than 1000 nM. The development of polyarthritis result in test [2] is listed as “delayed the development of polyarthritis in a dose-dependent manner”. In addition, the “arthritic score (arthritic index)” value in test [2] (FIG. 1) is “reduced the arthritic score”.
As for `Cc1[nH]c2ccc(NC(=O)c3cc(OCCN)nc(N4CCOCC4)n3)cc2c1C` [Compound 273, 6-(2-Amino-ethoxy)-2-morpholin-4-yl-pyrimidine-4-carboxylic acid (2,3-dimethyl-1H-indol-5-yl)-amide], the IC50 in test [1] was less than 1000 nM; in test [3], 1250 nM.
For the compound `Cc1[nH]c2ccc(NC(=O)c3cc(N(C)CC(N)=O)nc(N4CCOCC4)n3)cc2c1C` [Compound 117, 6-(Carbamoylmethyl-methyl-amino)-2-morpholin-4-yl-pyrimidine-4-carboxylic acid (2,3-dimethyl-1H-indol-5-yl)-amide], in test [1], the IC50 was less than 1000 nM.
In the case of `N#Cc1cccc(NC(=O)Nc2cc(OCCN3CCOCC3)nc(N3CCOCC3)n2)c1` [Compound 127, 1-(3-Cyano-phenyl)-3-[2-morpholin-4-yl-6-(2-morpholin-4-yl-ethoxy)-pyrimidin-4-yl]-urea], the IC50 in test [1] was less than 1000 nM.
The same measure, in the same setting: to `Cc1cccc(NC(=O)Nc2nc(OCCc3ccccn3)cc(N3CCOCC3)n2)c1` [Compound 71, 1-[4-Morpholin-4-yl-6-(2-pyridin-2-yl-ethoxy)-pyrimidin-2-yl]-3-m-tolyl-urea] belongs no less than 1000 nM; to `O=C(Nc1cccnc1)c1cc(OCCN2CCOCC2)nc(N2CCOCC2)n1` [Compound 292, 2-Morpholin-4-yl-6-(2-morpholin-4-yl-ethoxy)-pyrimidine-4-carboxylic acid pyridin-3-ylamide], no less than 1000 nM.
Same read-out and setting: to `COCCN(C)c1cc(C(=O)Nc2cccc(C#CC(C)(C)O)c2)nc(N2CCOCC2)n1` [Compound 226, 6-[(2-Methoxy-ethyl)-methyl-amino]-2-morpholin-4-yl-pyrimidine-4-carboxylic acid [3-(3-hydroxy-3-methyl-but-1-ynyl)-phenyl]-amide] belongs no less than 1000 nM.
Same read-out and setting: to `Cc1cccc(NC(=O)C(=O)Nc2cc(OCCc3ccccn3)nc(N3CCOCC3)n2)c1` [Compound 85, N-[2-Morpholin-4-yl-6-(2-pyridin-2-yl-ethoxy)-pyrimidin-4-yl]-N′-m-tolyl-oxalamide] belongs no less than 1000 nM.
In the case of `O=C(Nc1cccc(Br)c1)Nc1cc(N2CCOCC2)nc(OCCN2CCOCC2)n1` [Compound 118], the IC50 in test [1] was less than 1000 nM.
Turning to `COCCN(C)c1cc(C(=O)Nc2nc(C)cc(C)n2)nc(N2CCOCC2)n1` [Compound 240, 6-[(2-Methoxy-ethyl)-methyl-amino]-2-morpholin-4-yl-pyrimidine-4-carboxylic acid (4,6-dimethyl-pyrimidin-2-yl)-amide], the IC50 in test [1] was no less than 1000 nM.
Take `COCCN(C)c1cc(C(=O)Nc2ccc(Br)c(C)c2)nc(N2CCOCC2)n1` [Compound 230, 6-[(2-Methoxy-ethyl)-methyl-amino]-2-morpholin-4-yl-pyrimidine-4-carboxylic acid (4-bromo-3-methyl-phenyl)-amide]: the IC50 in test [1] was no less than 1000 nM.
For the compound `Cc1ccc2nc(NC(=O)c3cc(N4CCOCC4)nc(OCCc4ccccn4)n3)sc2c1` [Compound 64, 6-Morpholin-4-yl-2-(2-pyridin-2-yl-ethoxy)-pyrimidine-4-carboxylic acid (6-methyl-benzothiazol-2-yl)-amide], the IC50 in test [1] is no less than 1000 nM.
Turning to `Cc1cccc(NC(=O)c2cc(OCCc3ccccn3)nc(N3CCOCC3)n2)c1` [Compound 5, 2-Morpholin-4-yl-6-(2-pyridin-2-yl-ethoxy)-pyrimidine-4-carboxylic acid m-tolylamide], the IC50 in test [1] was less than 1000 nM.
On to `Cc1[nH]c2ccc(NC(=O)c3cc(OCC[N+]4([O-])CCOCC4)nc(N4CCOCC4)n3)cc2c1C` [Compound 27, 2-Morpholin-4-yl-6-[2-(4-oxy-morpholin-4-yl)-ethoxy]-pyrimidine-4-carboxylic acid (2,3-dimethyl-1H-indol-5-yl)-amide], for which the IC50 in test [1] was less than 1000 nM.
Turning to `CC(=O)N1CCN(c2cc(C(=O)Nc3ccc4[nH]c(C)c(C)c4c3)nc(N3CCOCC3)n2)CC1` [Compound 257, 6-(4-acetylpiperazin-1-yl)-N-(2,3-dimethyl-1H-indol-5-yl)-2-morpholinopyrimidine-4-carboxamide], the IC50 in test [1] is less than 1000 nM.
On to `Cc1ccc(NC(=O)c2cc(N3CCOCC3)nc(N3CCOCC3)n2)cc1C` [Compound 51, 2,6-Di-morpholin-4-yl-pyrimidine-4-carboxylic acid (3,4-dimethyl-phenyl)-amide], for which the IC50 in test [1] is less than 1000 nM.
As for `COCCN(C)c1cc(C(=O)Nc2ccc(NC(C)=O)cc2)nc(N2CCOCC2)n1` [Compound 165, 6-[(2-Methoxy-ethyl)-methyl-amino]-2-morpholin-4-yl-pyrimidine-4-carboxylic acid (4-acetylamino-phenyl)-amide], the IC50 in test [1] was no less than 1000 nM.
Take `CCn1ccc2ccc(NC(=O)c3cc(OCCN4CCOCC4)nc(N4CCOCC4)n3)cc21` [Compound 220, N-(1-ethyl-1H-indol-6-yl)-2-morpholino-6-(2-morpholinoethoxy)pyrimidine-4-carboxamide]: in test [1], the half-inhibitory concentration (IC50) is less than 1000 nM.
On to `Cc1[nH]c2ccc(NC(=O)c3cc(NCC(=O)O)nc(N4CCOCC4)n3)cc2c1C` [Compound 96, [6-(2,3-Dimethyl-1H-indol-5-ylcarbamoyl)-2-morpholin-4-yl-pyrimidin-4-ylamino]-acetic acid], for which the IC50 in test [1] is less than 1000 nM.
On the same count and under the same terms, under `Cc1[nH]c2ccc(NC(=O)c3cc(OCCN4CCOCC4)cc(N4CCOCC4)n3)cc2c1C` [Compound 29, 6-Morpholin-4-yl-4-(2-morpholin-4-yl-ethoxy)-pyridine-2-carboxylic acid (2,3-dimethyl-1H-indol-5-yl)-amide] stands less than 1000 nM.
In the case of `Cc1cccc(NNC(=O)c2cc(N3CCOCC3)nc(OCCc3ccccn3)n2)c1` [Compound 78, 6-Morpholin-4-yl-2-(2-pyridin-2-yl-ethoxy)-pyrimidine-4-carboxylic acid N′-m-tolyl-hydrazide], the IC50 in test [1] was less than 1000 nM.

As a reminder, the IC50 is the midpoint of a concentration-inhibition curve.
